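Where inhibition never reached the appropriate level, the endpoint shown equals the highest concentration tested. Otherwise, values were interpolated linearly from a five-concentration, 48-hour dose response in 96-well plates. TGI: concentration producing complete growth inhibition.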
What was measured:
Experiment in all cases: NCI tumour cell line growth inhibition, 48 h
A549 NSCLC = tested on: A549 NSCLC
COLO 205 colon = tested on: COLO 205 colon
DU-145 prostate = tested on: DU-145 prostate
HCC-2998 colon = tested on: HCC-2998 colon
HS 578T breast = tested on: HS 578T breast
IGROV1 ovarian = tested on: IGROV1 ovarian
KM12 colon = tested on: KM12 colon
LOX IMVI melanoma = tested on: LOX IMVI melanoma
MCF7 breast = tested on: MCF7 breast
MDA-MB-435 = tested on: MDA-MB-435
NCI-H226 lung = tested on: NCI-H226 lung
SK-OV-3 ovarian = tested on: SK-OV-3 ovarian
SNB-19 CNS = tested on: SNB-19 CNS
SNB-75 CNS = tested on: SNB-75 CNS
TK-10 renal = tested on: TK-10 renal

Structure (SMILES)	TGI (A549 NSCLC)	TGI (COLO 205 colon)	TGI (DU-145 prostate)	TGI (HCC-2998 colon)	TGI (HS 578T breast)	TGI (IGROV1 ovarian)	TGI (KM12 colon)	TGI (LOX IMVI melanoma)	TGI (MCF7 breast)	TGI (MDA-MB-435)	TGI (NCI-H226 lung)	TGI (SK-OV-3 ovarian)	TGI (SNB-19 CNS)	TGI (SNB-75 CNS)	TGI (TK-10 renal)
CCCCNc1nc(SC)nc2nc[nH]c12	> 100 µM	> 100 µM	> 100 µM	> 100 µM	21.9 µM	> 100 µM	> 100 µM	> 100 µM	> 100 µM	> 100 µM	> 100 µM	41.9 µM	> 100 µM	> 100 µM	> 100 µM
COC(=O)[C@]1(c2cc3ccccc3[nH]2)CC2CN(CC(=O)N(C)OC)C1C1OC(C)(C)OC21 (stereo not given in full)	> 100 µM	> 100 µM	> 100 µM	> 100 µM	> 100 µM	> 100 µM	> 100 µM	> 100 µM	> 100 µM	> 100 µM	> 100 µM	> 100 µM	> 100 µM	> 100 µM	> 100 µM
CCCCc1ccc(Nc2nc(Cl)c3[nH]cnc3n2)cc1	> 100 µM	43.4 µM	61.8 µM	41.2 µM	50.5 µM	71.8 µM	32 µM	26.6 µM	37.9 µM	32.1 µM	> 100 µM	99.8 µM	43.5 µM	85.4 µM	50.6 µM
COc1cc2cc(C(=O)N3CC(COS(C)(=O)=O)c4c3cc([N+](=O)[O-])c3ccccc43)[nH]c2c(OC)c1OC (stereo not given)	> 31.6 µM	> 100 µM	> 22.4 µM	> 31.6 µM	> 31.6 µM	> 31.6 µM	> 31.6 µM	> 100 µM	> 31.6 µM	> 31.6 µM	> 100 µM	> 100 µM	> 31.6 µM	> 31.6 µM	> 31.6 µM
CC(=O)OC1CC(OC2C(O)CC(OC3C(O)CC(OC4CCC5(C)C(CCC6C5CC(O)C5(C)C(C7=CC(=O)OC7)CCC65O)C4)OC3C)OC2C)OC(C)C1O (stereo not given) (tested in a mixture with another compound)	0.0259 µM	0.168 µM	0.0377 µM	0.463 µM	0.435 µM	0.176 µM	0.116 µM	0.0944 µM	0.216 µM	0.357 µM	0.176 µM	0.162 µM	0.458 µM	0.191 µM	0.114 µM
Cc1ccc(S(=O)(=O)C2=c3ncccc3=C3C(=O)c4ccccc4C(=O)C32)cc1 (stereo not given)	> 100 µM	> 100 µM	> 100 µM	> 100 µM	81.8 µM	> 62.2 µM	> 76.6 µM	> 100 µM	> 100 µM	> 100 µM	> 100 µM	> 100 µM	79.9 µM	> 100 µM	> 71.3 µM
Cc1ccc(C2SC(N)=Nc3c2c(C)nn3C(=O)c2ccncc2)cc1 (stereo not given)	> 10 µM	> 10 µM	> 10 µM	> 10 µM	> 10 µM	> 10 µM	> 10 µM	> 10 µM	> 10 µM	> 10 µM	> 10 µM	> 10 µM	> 10 µM	> 10 µM	> 10 µM
Cc1cccc(C)c1NC(=S)/N=C/C1=C(O)c2ccccc2C1=O	> 100 µM	> 40.4 µM	> 100 µM	> 100 µM	> 100 µM	> 79.4 µM	> 100 µM	> 100 µM	> 100 µM	> 80.1 µM	> 100 µM	> 29.3 µM	> 100 µM	51.4 µM	> 81.2 µM
C=CCCCC1(C)CCCCNC1=O (stereo not given)	> 10 µM	> 10 µM	> 10 µM	> 10 µM	> 10 µM	> 10 µM	> 10 µM	> 10 µM	> 10 µM	> 10 µM	> 10 µM	> 10 µM	> 10 µM	> 10 µM	> 10 µM
